Reference: patent US10308620B2, “Muscarinic M1 receptor positive allosteric modulators” (SUVEN LIFE SCIENCES LIMITED, priority 2015, dated 2019)

What was measured:
rats [1] = assay: Contextual fear conditioning task (scopolamine induced memory deficit); assay type: in vivo, rat; conditions: scopolamine 0.3 mg/kg, s.c.; FIG. 3
Experimental: Contextual Fear Conditioning Task
Experiment was carried out over a period of two days. On day 1, rats were placed in the operant behavior chamber and allowed to acclimatize for 2 minutes. Rats received an unavoidable foot shock (unconditioned stimulus (US): electric shock of 0.5-0.7 mA for 3 sec). Following a 1 minute interval, shocks were repeated to deliver a total of three US. Rats were administered with vehicle or test compound post training. Scopolamine (0.3 mg/kg, s.c.) was administered 120 minutes after training.
On day 2, rats were placed in the operant behavior chamber and total freezing time was scored for a period of 5 minutes.

rats [2] = assay: Modulation of cerebral blood flow in frontal cortex (Laser Doppler); assay type: in vivo, rat; conditions: intravenous, anaesthetized rats; FIG. 6
Experimental: Modulation of Cerebral Blood Flow in Frontal Cortex:
The effect of test compound on modulation of cerebral blood flow was evaluated using rats.
Rats were acclimatized to the laboratory environment for at least 7 days. Rats (300-350 grams) were housed in a group of four in a controlled environment (Temp=21±3° C.; Humidity=30-70%) and maintained on a 12-hour light/dark cycle with lights on at 07:00 AM. Food and water was provided ad libitum.
Rats were anaesthetized with 12% urethane (i.p.). Animal's body core temperature was maintained at 37° C. via a heating pad and rectal temperature probe. A small incision was made at one of the ventral side of the hind limb and the femoral vein was cannulated with PE10 tubing for drug application. Then animal was placed into a stereotaxic frame and a midline incision was made to expose the skull. A burr hole was drilled over the frontal cortex (stereotaxic coordinates 1 mm anterior and 4 mm lateral to bregma). Oxygen was supplied through the nose cone of the seterotaxic apparatus which was connected to the controlled gaseous supplier with a flow of 200 mL/minute. Laser Doppler probe (AD Instruments Inc) was placed over the hole to monitor cerebral blood flow. […] Data obtained was calculated as percent increase relative to resting basal blood flow level. […]

[3] = system: soluble amyloid precursor protein α (sAPPα); assay: Cortical sAPPα levels in rat brain (ELISA); assay type: in vivo; conditions: male Wistar rats, 10 mg/kg, i.p., sixty minutes post treatment; FIG. 5
Experimental: Modulation of Soluble Amyloid Precursor Protein α (sAPPα) Levels in Cortex
Estimation of Cortical sAPPα Levels in Rat Brain
Male Wistar rats (250±40 grams) were randomly divided (n=8 group) into different treatment groups. Control group of rats were intraperitoneally (i.p.) administered with vehicle (99.75% of 0.25% HEC HHX+0.25% tween 80). Rats from treatment groups received a single intraperitoneal injection of test compound (dose volume of 2 mL/kg). Rats were sacrificed by cervical dislocation at 60 minutes after administration of test compound. Brains were quickly isolated and the cortex was dissected at −20° C. The cortex was immediately kept on a dry ice and weighed before being stored at −80° C. until quantification of sAPPα using Enzyme-linked immunosorbent assay (ELISA).
• 1. […]
To investigate the role of an acute treatment of test compound on sAPPα levels, the expression of this protein was measured in homogenates obtained from the cortex of treated and untreated rats by employing ELISA assay. […]
Statistical analyses were performed using the Graph Pad Prism (Version 4). Results are expressed as Mean±SEM levels of sAPPα expressed as percentage of control values (rats treated with vehicle). Statistical significance after treatment was assessed using One-Way ANOVA followed by Dunnett's post test and the significance level was set below p value less than 0.05.

Male Wistar rats = assay: Object recognition task model (time induced memory deficit); assay type: in vivo, rat
Experimental: Object Recognition Task Model
The cognition enhancing properties of compounds of this invention were estimated by using this model.
Male Wistar rats (8-10 weeks old) were used as experimental animals. Four animals were housed in each cage. Animals were kept on 20% food deprivation from a day prior to experimentation. Water was provided ad libitum throughout the experiment. Animals were maintained on a 12 hours light/dark cycle in temperature and humidity controlled room. The experiment was carried out in an open field made up of acrylic. Rats were habituated to individual arenas (open field) for 1 hour in the absence of any objects on day 1.
One group of 12 rats received vehicle and another set of animals received test compounds or test compounds and Donepezil, before the familiar (T1) and choice (T2) trials. During the familiarization phase, (T1), the rats were placed individually in the arena for 3 minutes, in which two identical objects (a1 and a2) were positioned 10 cm from the wall. 24 hours after T1, trial for long-term memory test was performed. The same rats were placed in the same arena as they were placed in T1 trial. During the choice phase (T2) rats were allowed to explore the arena for 3 minutes in presence of a copy of familiar object (a3) and one novel object (b). During the T1 and T2 trial, explorations of each object (defined as sniffing, licking, chewing or having moving vibrissae whilst directing the nose towards the object at a distance of less than 1 cm) were recorded using stopwatch.
T1 is the total time spent exploring the familiar objects (a1+a2).
T2 is the total time spent exploring the familiar object and novel object (a3+b). Discriminative index=Time spent with novel object/(time spent with novel and familiar object).
The object recognition test was performed as described in Behavioural Brain Research, 1988, 31, 47-59.

[4] = 1 mg/kg, p.o., choice trial 24 hours after T1

Compound: O=C(N[C@H]1CCCC[C@@H]1O)C1=CN(Cc2cccc(F)c2F)c2ccccc2O1 [Example 18, N-(cis-1S, 2S-2-Hydroxycyclohexyl)-4-(2,3-difluorobenzyl)-4H-benzo[1,4]oxazine-2-carboxamide]
- Effect on scopolamine induced memory deficit (freezing time) (rats [1]): reversed the scopolamine induced memory deficit
- cerebral blood flow in the frontal cortex (rats [2]): significantly increased
- mean maximum increase in cortical sAPPα levels [3]: 26%
- Inference (Male Wistar rats; 1 mg/kg, p.o.): Active
- Exploration time mean ± S.E.M, Familiar object (Male Wistar rats; [4]): 8.74 ± 1.49 s
- Exploration time mean ± S.E.M, Novel object (Male Wistar rats; [4]): 16.47 ± 1.82 s
- Procognitive effects (Male Wistar rats; in combination with donepezil, FIGS. 1 and 2): better than the either treatment
